Data as given in patent US20060069132A1, “Azolecarboxamide herbicides” (priority 2004, published 2006).

How the values were obtained:
rice [1] = experiment: Test B flooded paddy test; assay type: in vivo, Oryza sativa; conditions: 1000 g ai/ha, visual rating, scale 0 to 100 (0 no effect, 100 complete control), 13 to 15 days
Method in brief: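 Each value is a visual 0–100 response rating taken against controls 13 to 15 days after treatment in the greenhouse. Plants received formulated chemical postemergence at the 1- to 4-leaf stage or, in flooded paddy, at the 2-leaf stage.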

rice [2] = experiment: Test C flooded paddy test; assay type: in vivo, Oryza sativa
Method in brief: (§1)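 Postemergence sprays applied to plants 2 to 18 cm tall (1- to 4-leaf stage); paddy species grown to 2-leaf stage under flooding. After 12 to 14 days in greenhouse, visual rating versus untreated controls on 0–100 scale (0 no effect, 100 complete control).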

large crabgrass = experiment: Test B pre-/postemergence herbicide test; assay type: in vivo, Digitaria sanguinalis; conditions: for Crabgrass, Large plant response rating: postemergence, visual rating, scale 0 (no effect) to 100 (complete control)
Method in brief: (§2)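 Evaluation is visual, comparing treated with control plants on a scale where 0 means no effect and 100 means full control. Treatments were preemergence, or postemergence on seedlings 2–18 cm tall, and held 13–15 days in the greenhouse.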

corn = experiment: Test B pre-/postemergence herbicide test; assay type: in vivo, Zea mays; conditions: for Corn plant response rating: postemergence, visual rating, scale 0 (no effect) to 100 (complete control)
Method in brief: as §2

pigweed = experiment: Test B pre-/postemergence herbicide test; assay type: in vivo, Amaranthus retroflexus; conditions: for Pigweed plant response rating: postemergence, visual rating, scale 0 (no effect) to 100 (complete control)
Method in brief: as §2

cocklebur = experiment: Test B pre-/postemergence herbicide test; assay type: in vivo, Xanthium strumarium; conditions: for Cocklebur plant response rating: postemergence, visual rating, scale 0 (no effect) to 100 (complete control)
Method in brief: (§3)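 Test chemicals in a non-phytotoxic solvent mixture with surfactant were applied preemergence to seeded species and postemergence to plants 2-18 cm tall (1- to 4-leaf stage); rice and barnyardgrass were also tested in a flooded paddy at the 2-leaf stage. Visual rating versus controls after 13-15 days in greenhouse, scale 0 (no effect) to 100 (complete control).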

[3] = tested on: smallflower umbrella sedge; experiment: Test C flooded paddy test; assay type: in vivo, Cyperus difformis
blackgrass = experiment: Test B postemergence herbicide test; assay type: in vivo, Alopecurus myosuroides; conditions: postemergence, visual rating, scale 0 (no effect) to 100 (complete control)
Method in brief: (§4)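 Paddy species grown to the 2-leaf stage under flooding; blackgrass sprayed postemergence at 2–18 cm (1- to 4-leaf stage). Plants kept in a greenhouse for 13 to 15 days, then visually rated against controls on 0 (no effect) to 100 (complete control).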

Surinam grass = experiment: Test B pre-/postemergence herbicide test; assay type: in vivo, Urochloa decumbens; conditions: for Surinam Grass plant response rating: postemergence, visual rating, scale 0 (no effect) to 100 (complete control)
Method in brief: as §2

lambsquarters = experiment: Test B pre-/postemergence herbicide test; assay type: in vivo, Chenopodium album; conditions: for Lambsquarters plant response rating: postemergence, visual rating, scale 0 (no effect) to 100 (complete control)
Method in brief: as §2

ducksalad [4] = experiment: Test B flooded paddy test; assay type: in vivo, Heteranthera limosa; conditions: 1000 g ai/ha, visual rating, scale 0 to 100 (0 no effect, 100 complete control), 13 to 15 days
Method in brief: as §4

barnyardgrass [5] = experiment: Test B flooded paddy test; assay type: in vivo, Echinochloa crus-galli; conditions: 1000 g ai/ha, visual rating, scale 0 to 100 (0 no effect, 100 complete control), 13 to 15 days
Method in brief: as §4

barnyardgrass [6] = experiment: Test C flooded paddy test; assay type: in vivo, Echinochloa crus-galli
Method in brief: as §1

giant foxtail = experiment: Test B pre-/postemergence herbicide test; assay type: in vivo, Setaria faberi; conditions: for Foxtail, Giant plant response rating: postemergence, visual rating, scale 0 (no effect) to 100 (complete control)
Method in brief: as §2

morningglory = experiment: Test B pre-/postemergence herbicide test; assay type: in vivo, Ipomoea coccinea; conditions: for Morningglory plant response rating: postemergence, visual rating, scale 0 (no effect) to 100 (complete control)
Method in brief: as §3

wheat = experiment: Test B postemergence herbicide test; assay type: in vivo, Triticum aestivum; set-up: key to Wheat plant response rating: 0 = no effect, 100 = complete control; conditions: postemergence, visual rating, scale 0 (no effect) to 100 (complete control)
Method in brief: (§5)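 Postemergence plants were sprayed with formulated test chemicals at 2 to 18 cm height (1- to 4-leaf stage); paddy species were grown to the 2-leaf stage. After 13 to 15 days in a greenhouse, injury was rated visually against untreated controls on a 0–100 scale (0 = no effect, 100 = complete control).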

barnyardgrass [7] = experiment: Test B pre-/postemergence herbicide test; assay type: in vivo, Echinochloa crus-galli; conditions: for Barnyardgrass plant response rating: postemergence, visual rating, scale 0 (no effect) to 100 (complete control)
Method in brief: as §3

[8] = tested on: small flower umbrella sedge; experiment: Test B flooded paddy test; assay type: in vivo, Cyperus difformis; conditions: 1000 g ai/ha, visual rating, scale 0 to 100 (0 no effect, 100 complete control), 13 to 15 days
Method in brief: as §4

rice [9] = experiment: Test B pre-/postemergence herbicide test; assay type: in vivo, Oryza sativa; conditions: preemergence
Method in brief: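 Plants compared with untreated controls 13–15 days post-treatment and given a visual 0–100 injury score. Applications: preemergence to seeds; postemergence at 1- to 4-leaf (2–18 cm); paddy species flooded, 2-leaf stage. Vehicle non-phytotoxic, surfactant included.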

wild oat = experiment: Test B postemergence herbicide test; assay type: in vivo, Avena fatua; conditions: postemergence, visual rating, scale 0 (no effect) to 100 (complete control)
Method in brief: as §5

velvetleaf = experiment: Test B pre-/postemergence herbicide test; assay type: in vivo, Abutilon theophrasti; conditions: for Velvetleaf plant response rating: postemergence, visual rating, scale 0 (no effect) to 100 (complete control)
Method in brief: as §2

ducksalad [10] = experiment: Test C flooded paddy test; assay type: in vivo, Heteranthera limosa
[11] = 62 g ai/ha, scale 0 to 100 (0 no effect, 100 complete control)
[12] = 125 g ai/ha, scale 0 to 100 (0 no effect, 100 complete control)
[13] = 250 g ai/ha, scale of 0 to 100, 0 is no effect, 100 is complete control
[14] = 500 g ai/ha, visual rating after 12 to 14 days, scale 0 to 100 (0 no effect, 100 complete control)
[15] = 125 g ai/ha, 0 = no effect, 100 = complete control, preemergence
[16] = 500 g ai/ha, visual rating 0-100, 0 no effect, 100 complete control, preemergence

CCOC(=O)c1cccc(NC(=O)c2cn(C(C)(C)C)nc2CC)c1 [Compound 186]
Rice plant response rating (rice [1]): 30
Rice plant response rating (rice [2]; [11]): 40
Rice plant response rating (rice [2]; [12]): 55
Rice plant response rating (rice [2]; [13]): 60
Plant response rating, Rice (rice [2]; [14]): 65
Crabgrass, Large plant response rating (0 to 100 scale) (large crabgrass; [15]): 0
Plant response rating, Crabgrass, Large (large crabgrass; [16]): 10
Crabgrass, Large plant response rating (large crabgrass; 125 g ai/ha): 10
Crabgrass, Large plant response rating (large crabgrass; 500 g ai/ha): 10
Corn plant response rating (0 to 100 scale) (corn; [15]): 0
Plant response rating, Corn (corn; [16]): 10
Corn plant response rating (corn; 125 g ai/ha): 20
Corn plant response rating (corn; 500 g ai/ha): 20
Pigweed plant response rating (0 to 100 scale) (pigweed; [15]): 0
Plant response rating, Pigweed (pigweed; [16]): 0
Pigweed plant response rating (pigweed; 125 g ai/ha): 60
Pigweed plant response rating (pigweed; 500 g ai/ha): 60
Cocklebur plant response rating (0 to 100 scale) (cocklebur; [15]): 0
Plant response rating, Cocklebur (cocklebur; [16]): 0
Cocklebur plant response rating (cocklebur; 125 g ai/ha): 60
Cocklebur plant response rating (cocklebur; 500 g ai/ha): 90
Sedge, Umbrella plant response rating [3, 11]: 80
Sedge, Umbrella plant response rating [3, 12]: 80
Sedge, Umbrella plant response rating [3, 13]: 80
Plant response rating, Sedge, Umbrella [3, 14]: 85
Blackgrass plant response rating (blackgrass; 125 g ai/ha): 10
Blackgrass plant response rating (blackgrass; 500 g ai/ha): 30
Surinam Grass plant response rating (0 to 100 scale) (Surinam grass; [15]): 0
Plant response rating, Surinam Grass (Surinam grass; [16]): 10
Surinam Grass plant response rating (Surinam grass; 125 g ai/ha): 10
Surinam Grass plant response rating (Surinam grass; 500 g ai/ha): 30
Lambsquarters plant response rating (0 to 100 scale) (lambsquarters; [15]): 0
Plant response rating, Lambsquarters (lambsquarters; [16]): 0
Lambsquarters plant response rating (lambsquarters; 125 g ai/ha): 10
Lambsquarters plant response rating (lambsquarters; 500 g ai/ha): 30
Ducksalad plant response rating (ducksalad [4]): 90
Barnyardgrass plant response rating (barnyardgrass [5]): 30
Barnyardgrass plant response rating (barnyardgrass [6]; [11]): 20
Barnyardgrass plant response rating (barnyardgrass [6]; 125 g ai/ha, scale of 0 to 100, 0 is no effect, 100 is complete control): 30
Barnyardgrass plant response rating (barnyardgrass [6]; [13]): 45
Plant response rating, Barnyardgrass (barnyardgrass [6]; [14]): 70
Foxtail, Giant plant response rating (0 to 100 scale) (giant foxtail; [15]): 0
Plant response rating, Foxtail, Giant (giant foxtail; [16]): 10
Foxtail, Giant plant response rating (giant foxtail; 125 g ai/ha): 10
Foxtail, Giant plant response rating (giant foxtail; 500 g ai/ha): 20
Morningglory plant response rating (0 to 100 scale) (morningglory; [15]): 0
Plant response rating, Morningglory (morningglory; [16]): 0
Morningglory plant response rating (morningglory; 125 g ai/ha): 20
Morningglory plant response rating (morningglory; 500 g ai/ha): 30
Wheat plant response rating (wheat; 125 g ai/ha): 10
Wheat plant response rating (wheat; 500 g ai/ha): 20
Barnyardgrass plant response rating (0 to 100 scale) (barnyardgrass [7]; [15]): 0
Plant response rating, Barnyardgrass (barnyardgrass [7]; [16]): 10
Barnyardgrass plant response rating (barnyardgrass [7]; 125 g ai/ha): 10
Barnyardgrass plant response rating (barnyardgrass [7]; 500 g ai/ha): 50
Sedge, Umbrella plant response rating [8]: 90
Rice plant response rating (0 to 100 scale) (rice [9]; 125 g ai/ha, 0 = no effect, 100 = complete control): 0
Plant response rating, Rice (rice [9]; 500 g ai/ha, visual rating 0-100, 0 no effect, 100 complete control): 20
Oat, Wild plant response rating (wild oat; 125 g ai/ha): 10
Oat, Wild plant response rating (wild oat; 500 g ai/ha): 20
Velvetleaf plant response rating (0 to 100 scale) (velvetleaf; [15]): 10
Plant response rating, Velvetleaf (velvetleaf; [16]): 20
Velvetleaf plant response rating (velvetleaf; 125 g ai/ha): 60
Velvetleaf plant response rating (velvetleaf; 500 g ai/ha): 60
Ducksalad plant response rating (ducksalad [10]; [11]): 15
Ducksalad plant response rating (ducksalad [10]; [12]): 40
Ducksalad plant response rating (ducksalad [10]; [13]): 65
Plant response rating, Ducksalad (ducksalad [10]; [14]): 80
